The nature of the experiment: DPPH radical scavenging antioxidant test. In kind it is biochemical. The following applies: 517 nm; for Inhibition (radical scavenging inhibition): 0.2 mL DPPH (0.75 mM), compound (3p M) in ethanol, 30 minutes in the dark; for antioxidant activity (in words): DPPH in vitro test, vitamin C as positive control. From the text: A dipyridine benzo[b]thiophene derivative compound comprises 4-(1-benzothiophen-2-yl)-6-ethoxy-2,3′-bipyridine-5-carbonitrile. […] As described herein, the antioxidant activity of 4-(1-benzothiophen-2-yl)-6-ethoxy-2,3′-bipyridine-5-carbonitrile was investigated by 2,2-diphenyl-1-picrylhydrazyl (DPPH) in vitro tests that employ vitamin C as the positive control.
The antioxidant properties of the 4-(1-benzothiophen-2-yl)-6-ethoxy-2,3′-bipyridine-5-carbonitrile compound were studied by adding 0.2 mL DPPH (0.75 mM)) to 4-(1-benzothiophen-2-yl)-6-ethoxy-2,3′-bipyridine-5-carbonitrile (3p M) (4) in ethanol. After 30 minutes of incubation in the dark, the absorbance was read against a blank at 517 nm. Ascorbic acid (Vitamin C) was used as a standard antioxidant (positive control). A blank sample was prepared by 0.2 mL of DPPH in 3 mL ethanol. A negative control sample was run using ethanol instead of the sample. The radical scavenging inhibition was calculated using the following equation: […]
The antioxidant activity for the synthesized compound is listed in Table 1, using Vitamin C as a reference.
(In general: DPPH is a stable violet radical that fades when it is reduced.)

For the molecule `CCOc1nc(-c2cccnc2)cc(-c2cc3ccccc3s2)c1C#N` [Product 4, 4-(1-benzothiophen-2-yl)-6-ethoxy-2,3′-bipyridine-5-carbonitrile], the “Inhibition (radical scavenging inhibition)” value was 48% and the “antioxidant activity (in words)” value is reported as “high antioxidant activities”. Besides, the “antioxidant activity (in words)” value (listed as III) was “high potential as an antioxidant compared to vitamin C”.
As for `O=C1O[C@H]([C@@H](O)CO)C(O)=C1O` [Vit C, Ascorbic acid, reference compound], the “Inhibition (radical scavenging inhibition)” value was determined as 74%.
